This test has as its system NCIH929.1 cells. In words: Cell viability assay for Table 2 (CellTiter-Glo 2.0, ATP quantification, 96 hr). In kind it is cell-based. The text has this:
Cell Viability Assay for Table 2
CellTiter-Glo® 2.0 Assay was purchased from Promega (Madison, Wis., USA). NCIH929.1 cell line was purchased from ATCC (Manassas, Va., USA). Cell culture flasks and 384-well microplates were acquired from VWR (Radnor, Pa., USA).
In general terms: Cellular ATP, detected with luciferase, serves as a proxy for viable cell number.

Setting [1] is: 96 h, NCIH929.1 cell viability, 96 hr, top concentration 1 μM, 14 points half log titration, read-out: IC50.

Our source for the IC50 values is patent US20230082430A1 (C4 Therapeutics, Inc., priority 2019, published 2023).

As a reminder, the IC50 is the concentration needed to halve the response being measured.

Like-named read-outs stand apart in the source and are kept apart here. Bounds are passed on as bounds.

As to `CC1(C(=O)N2CCC(n3cc(S(=O)(=O)c4ccc5c6c(cccc46)C(=O)N5C4CCC(=O)NC4=O)cn3)CC2)CCC1` (stereo not drawn) [Compound 175, 3-[6-[1-[1-(1-methylcyclobutanecarbonyl)-4-piperidyl]pyrazol-4-yl]sulfonyl-2-oxo-benzo[cd]indol-1-yl]piperidine-2,6-dione], the IC50 under setting [1] is less than 100 nM.
`O=C1CCC(N2C(=O)c3cccc4c(Cc5cnn(C6CC(OCc7ccccc7)C6)c5)ccc2c34)C(=O)N1` (stereo not drawn) [Compound 177, 3-[6-[[1-(3-benzyloxycyclobutyl)pyrazol-4-yl]methyl]-2-oxo-benzo[cd]indol-1-yl]piperidine-2,6-dione]: the IC50 under setting [1] is less than 100 nM.
Take `CC1(C(=O)N2CCC(c3ccn(Cc4ccc5c6c(cccc46)C(=O)N5C4CCC(=O)NC4=O)n3)CC2)CCC1` (stereo not drawn) [Compound 180, 3-[6-[[3-[1-(1-methylcyclobutanecarbonyl)-4-piperidyl]pyrazol-1-yl]methyl]-2-oxo-benzo[cd]indol-1-yl]piperidine-2,6-dione]: the IC50 under setting [1] was less than 1 nM.
Same read-out and setting: the figure for `CC1(C(=O)N2CCC(N3CCN(Cc4ccc5c6c(cccc46)C(=O)N5C4CCC(=O)NC4=O)C3=O)CC2)CCC1` (stereo not drawn) [Compound 181, 3-[6-[[3-[1-(1-methylcyclobutanecarbonyl)-4-piperidyl]-2-oxo-imidazolidin-1-yl]methyl]-2-oxo-benzo[cd]indol-1-yl]piperidine-2,6-dione] is less than 1 nM.
Regarding `O=C1CCC(N2C(=O)c3cccc4c(Cc5ccc(CN6CCN(c7ccccc7F)CC6)cc5)ccc2c34)C(=O)N1` (stereo not drawn) [Compound 188, 3-[6-[[4-[[4-(2-fluorophenyl)piperazin-1-yl]methyl]phenyl]methyl]-2-oxo-benzo[cd]indol-1-yl]piperidine-2,6-dione], the IC50 under setting [1] was less than 1 nM.
Take `CC1(CN2CCC(n3cc(Cc4ccc5c6c(cccc46)C(=O)N5C4CCC(=O)NC4=O)cn3)(C(F)(F)F)CC2)CCC1` (stereo not drawn) [Compound 191, 3-[6-[[1-[1-[(1-methylcyclobutyl)methyl]-4-(trifluoromethyl)-4-piperidyl]pyrazol-4-yl]methyl]-2-oxo-benzo[cd]indol-1-yl]piperidine-2,6-dione]: the IC50 under setting [1] is less than 1 nM.
Regarding `CC1(C(=O)N2CCC(n3cc(Cc4ccc5c6c(cccc46)C(=O)N5C4CCC(=O)NC4=O)nn3)CC2)CCC1` (stereo not drawn) [Compound 192, 3-[6-[[1-[1-(1-methylcyclobutanecarbonyl)-4-piperidyl]triazol-4-yl]methyl]-2-oxo-benzo[cd]indol-1-yl]piperidine-2,6-dione], the IC50 under setting [1] was less than 1 nM.
Regarding `CC1(CN2CCC(C#N)(n3cc(Cc4ccc5c6c(cccc46)C(=O)N5C4CCC(=O)NC4=O)cn3)CC2)CCC1` (stereo not drawn) [Compound 193, 4-[4-[[1-(2,6-dioxo-3-piperidyl)-2-oxo-benzo[cd]indol-6-yl]methyl]pyrazol-1-yl]-1-[(1-methylcyclobutyl)methyl]piperidine-4-carbonitrile], under setting [1], the IC50 was less than 1 nM.
Same read-out and setting: the result for `NCC1(n2cc(Cc3ccc4c5c(cccc35)C(=O)N4C3CCC(=O)NC3=O)cn2)CCN(C(=O)C2(C(F)(F)F)CC2)CC1` (stereo not drawn) [Compound 194, 3-[6-[[1-[4-(aminomethyl)-1-[1-(trifluoromethyl)cyclopropanecarbonyl]-4-piperidyl]pyrazol-4-yl]methyl]-2-oxo-benzo[cd]indol-1-yl]piperidine-2,6-dione] reads less than 100 nM; that for `O=C1CCC(N2C(=O)c3cccc4c(Cc5cnn(C6(CO)CCN(C(=O)C7(C(F)(F)F)CC7)CC6)c5)ccc2c34)C(=O)N1` (stereo not drawn) [Compound 195, 3-[6-[[1-[4-(hydroxymethyl)-1-[1-(trifluoromethyl)cyclopropanecarbonyl]-4-piperidyl]pyrazol-4-yl]methyl]-2-oxo-benzo[cd]indol-1-yl]piperidine-2,6-dione], less than 1 nM; that for `N#Cc1ccc(N2CCN(C(=O)c3ccc(Cc4ccc5c6c(cccc46)C(=O)N5C4CCC(=O)NC4=O)cc3)CC2)c(F)c1` (stereo not drawn) [Compound 196, 4-[4-[4-[[1-(2,6-dioxo-3-piperidyl)-2-oxo-benzo[cd]indol-6-yl]methyl]benzoyl]piperazin-1-yl]-3-fluoro-benzonitrile], less than 1 nM.
In the case of `O=C1CCC(N2C(=O)c3cccc4c(Cc5ccc(CN6CCOCC6=O)cc5)ccc2c34)C(=O)N1` (stereo not drawn) [Compound 197, 3-[2-oxo-6-[[4-[(3-oxomorpholin-4-yl)methyl]phenyl]methyl]benzo[cd]indol-1-yl]piperidine-2,6-dione], under setting [1], the IC50 was less than 1 nM.
As to `CC1(n2cc(Cc3ccc4c5c(cccc35)C(=O)N4C3CCC(=O)NC3=O)cn2)CCCCC1` (stereo not drawn) [Compound 198, 3-[6-[[1-(1-methylcyclohexyl)pyrazol-4-yl]methyl]-2-oxo-benzo[cd]indol-1-yl]piperidine-2,6-dione], under setting [1], the IC50 was less than 1 nM.
As to `N#CC1(CN2CCC(n3cc(Cc4ccc5c6c(cccc46)C(=O)N5C4CCC(=O)NC4=O)cn3)CC2)CC1` (stereo not drawn) [Compound 199, 1-[[4-[4-[[1-(2,6-dioxo-3-piperidyl)-2-oxo-benzo[cd]indol-6-yl]methyl]pyrazol-1-yl]-1-piperidyl]methyl]cyclopropanecarbonitrile], the IC50 under setting [1] was less than 1 nM.
On to `CC1(CN2CCC(n3cc(Cc4ccc5c6c(cccc46)C(=O)N5C4CCC(=O)NC4=O)c(Cl)n3)CC2)CCC1` (stereo not drawn) [Compound 200, 3-[6-[[3-chloro-1-[1-[(1-methylcyclobutyl)methyl]-4-piperidyl]pyrazol-4-yl]methyl]-2-oxo-benzo[cd]indol-1-yl]piperidine-2,6-dione], for which the IC50 under setting [1] was less than 1 nM.
`O=C1CCC(N2C(=O)c3cccc4c(Cc5cn(C6CCN(CC7(C(F)(F)F)CC7)CC6)nc5Cl)ccc2c34)C(=O)N1` (stereo not drawn) [Compound 201, 3-[6-[[3-chloro-1-[1-[[1-(trifluoromethyl)cyclopropyl]methyl]-4-piperidyl]pyrazol-4-yl]methyl]-2-oxo-benzo[cd]indol-1-yl]piperidine-2,6-dione] returned a half-inhibitory concentration (IC50) (96 h) of less than 1 nM.
`O=C1CCC(N2C(=O)c3cccc4c(Cc5ccc(CN6CCN(S(=O)(=O)c7ccc(F)cc7)CC6)cc5)ccc2c34)C(=O)N1` (stereo not drawn) [Compound 202, 3-[6-[[4-[[4-(4-fluorophenyl)sulfonylpiperazin-1-yl]methyl]phenyl]methyl]-2-oxo-benzoindol-1-yl]piperidine-2,6-dione]: the IC50 under setting [1] was less than 1 nM.
On to `O=C1CCC(N2C(=O)c3cccc4c(Cc5ccc(CC6CCN(c7ccc(F)cc7)CC6)cc5)ccc2c34)C(=O)N1` (stereo not drawn) [Compound 203, 3-[6-[[4-[[1-(4-fluorophenyl)-4-piperidyl]methyl]phenyl]methyl]-2-oxo-benzo[cd]indol-1-yl]piperidine-2,6-dione], for which, under setting [1], the IC50 is less than 1 nM.
For the compound `O=C1CCC(N2C(=O)c3cccc4c(Cc5cnn(C6CCN(C(=O)C7(CO)CCC7)CC6)c5)ccc2c34)C(=O)N1` (stereo not drawn) [Compound 205, 3-[6-[[1-[1-[1-(hydroxymethyl)cyclobutanecarbonyl]-4-piperidyl]pyrazol-4-yl]methyl]-2-oxo-benzo[cd]indol-1-yl]piperidine-2,6-dione], the IC50 under setting [1] was less than 1 nM.
Regarding `CC1(CN2CCC(n3nc(Cl)cc3Cc3ccc4c5c(cccc35)C(=O)N4C3CCC(=O)NC3=O)CC2)CCC1` (stereo not drawn) [Compound 206, 3-[6-[[5-chloro-2-[1-[(1-methylcyclobutyl)methyl]-4-piperidyl]pyrazol-3-yl]methyl]-2-oxo-benzo[cd]indol-1-yl]piperidine-2,6-dione], under setting [1], the 50% inhibitory concentration (IC50) is less than 1 nM.
With `N#Cc1ccc(N2CCN(Cc3ccn(Cc4ccc5c6c(cccc46)C(=O)N5C4CCC(=O)NC4=O)n3)CC2)c(F)c1` (stereo not drawn) [Compound 208, 4-(4-((1-((1-(2,6-dioxopiperidin-3-yl)-2-oxo-1,2-dihydrobenzo[cd]indol-6-yl)methyl)-1-H-pyrazol-3-yl)methyl)piperazin-1-yl)-3-fluorobenzonitrile], the 50% inhibitory concentration (IC50) under setting [1] was less than 1 nM.
Take `N#Cc1ccc(N2CCN(Cc3ccnn3Cc3ccc4c5c(cccc35)C(=O)N4C3CCC(=O)NC3=O)CC2)c(F)c1` (stereo not drawn) [Compound 209, 4-(4-((1-((1-(2,6-dioxopiperidin-3-yl)-2-oxo-1,2-dihydrobenzo[cd]indol-6-yl)methyl)-1-H-pyrazol-5-yl)methyl)piperazin-1-yl)-3-fluorobenzonitrile]: the IC50 under setting [1] was less than 100 nM.
As for `O=C1CCC(N2C(=O)c3cccc4c(Cc5ccc(CN6CCN(c7ccccc7)CC6)cc5)ccc2c34)C(=O)N1` (stereo not drawn) [Compound 210, 3-(2-oxo-6-(4-((4-phenylpiperazin-1-yl)methyl)benzyl)benzo[cd]indol-1(2H)-yl)piperidine-2,6-dione], under setting [1], the IC50 is less than 1 nM.
The same measure, in the same setting: the result for `CC1(n2cc(Cc3ccc4c5c(cccc35)C(=O)N4C3CCC(=O)NC3=O)nn2)CCN(C(=O)C2(C(F)(F)F)CC2)CC1` (stereo not drawn) [Compound 211, 3-(6-((1-(4-methyl-1-(1-(trifluoromethyl)cyclopropane-1-carbonyl)piperidin-4-yl)-1H-1,2,3-triazol-4-yl)methyl)-2-oxobenzo[cd]indol-1(2H)-yl)piperidine-2,6-dione] reads less than 1 nM; that for `CC(C)(C)OC1CCC(n2cc(Cc3ccc4c5c(cccc35)C(=O)N4C3CCC(=O)NC3=O)cn2)CC1` (stereo not drawn) [Compound 212, 3-[6-[[1-(4-tert-butoxycyclohexyl)pyrazol-4-yl]methyl]-2-oxo-benzo[cd]indol-1-yl]piperidine-2,6-dione], less than 1 nM.
With `CC(C)(C)OC1CCC(n2cc(Cc3ccc4c5c(cccc35)C(=O)N4C3CCC(=O)NC3=O)cn2)CC1` (stereo not drawn) [Compound 213, 3-[6-[[1-(4-tert-butoxycyclohexyl)pyrazol-4-yl]methyl]-2-oxo-benzo[cd]indol-1-yl]piperidine-2,6-dione], under “NCIH929.1 cell viability, 96 hr, top concentration 1 μM, 14 points half log titration, read-out: IC50”, the IC50 is less than 1 nM.
`N#Cc1ccc(N2CCN(Cc3ccc(Cc4ccc5c6c(cccc46)C(=O)N5C4CCC(=O)NC4=O)cc3F)CC2)c(F)c1` (stereo not drawn) [Compound 214, 4-[4-[[4-[[1-(2,6-dioxo-3-piperidyl)-2-oxo-benzo[cd]indol-6-yl]methyl]-2-fluoro-phenyl]methyl]piperazin-1-yl]-3-fluoro-benzonitrile] had an IC50 (96 h) of less than 1 nM.
